Assay results as given in article PMC9180926, “Discovery of Novel 3-Hydroxyquinazoline-2,4(1H,3H)-Dione Derivatives: A Series of Metal Ion Chelators with Potent Anti-HCV Activities” (International Journal of Molecular Sciences, 2022).
Where two headings read alike, the source gives them in different places.

Columns and labels:
[1] = tested on: HCV 1b replicon cells (Huh-7.5.1); test: Anti-HCV assay, HCV 1b replicon cells with luciferase reporter; assay type: cell-based, hepatitis C virus (HCV) subtype 1b; conditions: for inhibition at 10 µM / inhibition at 25 µM / EC50: Hepatitis C virus; for inhibition at 10 µM / inhibition at 25 µM: Huh-7.5.1, 72 h; for inhibition at 10 µM: read-out: HCV Inhibition 10 μM; for inhibition at 25 µM: read-out: HCV Inhibition 25 μM; for EC50: Huh-7.5.1, 50% effective concentration, mean ± SD; for HCV inhibition at the tested concentrations: at the tested concentrations (25 μM and 10 μM)
Protocol: (§1) The HCV replicons were validated as convenient and effective models for testing the anti-HCV activity. Since HCV subtype 1b is one of the major subtypes worldwide, especially in China, the replicon model from the Huh-7.5.1 cell line integrating HCV 1b genome encoding the nonstructural proteins was chosen to evaluate the anti-HCV activities of 3-hydroxyquinazoline-2,4(1H,3H)-diones. The inhibitory rates of the compounds on HCV replicon cells were determined at concentrations of 25 μM and 10 μM, respectively. The broad-spectrum antiviral drug ribavirin (RBV) and the NS5B nucleoside inhibitor 2′-C-methyladenosine (2CMA) were selected as positive controls. The cytotoxicity of these compounds on replicon cells was determined using the cell counting kit-8 (CCK-8) assay.
HCV 1b replicon cells (Huh-7.5.1) containing luciferase reporter gene were kindly provided by Prof. Zhenghong Yuan (Key Laboratory of Medical Molecular Virology, Fudan University, Shanghai, China). The replicon cells were plated at 1.5 × 10^4 cells per well in a 48-well plate (Corning Inc., New York, NY, USA) at 5% CO2/37 °C. The culture medium was Dulbecco’s Modified Eagle Medium (DMEM, pH 7.3, Shanghai XP Biomed Ltd., Shanghai, China) containing 10% fetal bovine serum (Shanghai XP Biomed Ltd., Shanghai, China), 10^5 U/L penicillin, 0.1 g/L streptomycin, and 0.5 μg/mL blasticidin. After 12 h, the culture medium in each well was replaced with 300 μL of pre-prepared fresh culture medium containing test compound (dissolved in DMSO with specific concentration) or blank DMSO. The final concentration of DMSO in the culture medium in the plate was 0.1%. Each group was tested at least twice in parallel. Ribavirin and 2CMA were used as the positive controls. After incubating the drug-added plate at 5% CO2/37 °C for 72 h, the medium was removed, and each well was washed with 300 μL of phosphate buffer solution (PBS, Shanghai XP Biomed Ltd., Shanghai, China). The cells in each well were then lysed with 50 μL of 1× lysis buffer (E2820, Promega, Madison, WI, USA). Subsequently, 50 μL of 1× luciferase assay substrate (E2820, Promega, Madison, WI, USA) was mixed with 20 μL of the harvested cell lysates.
The inhibitory rates under at least six different concentration gradients were imported into GraphPad Prism 7.0 software to calculate the anti-HCV EC50 values of the compounds using the nonlinear fitting method.

[2] = Cytotoxicity assay (CCK-8) on replicon cells; assay type: cell-based; conditions: human, HCV 1b replicon cells (Huh-7.5.1); 50% cytotoxic concentration; CCK-8, HCV 1b replicon cells, 72 h
Protocol: as §1
The HCV 1b replicon cells were incubated and treated with test compounds or blank DMSO in a 48-well plate using the same materials and methods as described in the experimental procedure of anti-HCV assay. The final concentration of DMSO in each well was 0.1%. After 72 h of drug treatment, the culture medium in the well plate was removed, and cells in each well were washed with 300 μL of PBS. A total of 300 μL of pre-prepared fresh culture medium containing 30 μL CCK-8 reagent (Donjindo, Kumamoto, Japan) was added to each well, and the plate was incubated at 5% CO2/37 °C for 2 h. The OD (optical density) value of each well at 450 nm was measured using a multi-function microplate reader (SpectraMax M5, Molecular Devices, San Jose, CA, USA). The death ratio of each well was calculated using the following equation, in which ODcompound or ODblank represents the measured OD value of the compound group or the blank control (DMSO), respectively:death ratio = (1−ODcompound/ODblank) × 100%(2)
The cell death data under at least six different concentration gradients were imported into GraphPad Prism 7.0.0 software (GraphPad Software Inc., San Diego, CA, USA), and the CC50 (50% cytotoxic concentration) values were calculated using the nonlinear fitting method.

[3] = inhibitory rate at 10 μM, HCV 1b replicon cells, 72 h
[4] = inhibitory rate at 25 μM, HCV 1b replicon cells, 72 h

Compound	inhibition at 10 µM [1, 3] [%]	inhibition at 25 µM [1, 4] [%]	also measured
O=c1[nH]c2c(-c3ccc(C(F)(F)F)cc3)cccc2c(=O)n1O [21x, 3-Hydroxy-8-(4-(trifluoromethyl)phenyl)quinazoline-2,4(1H,3H)-dione]	16.4	47.5	–
COc1ccc(-c2ccc3c(=O)n(O)c(=O)[nH]c3c2)cc1 [21i, 3-Hydroxy-7-(4-methoxyphenyl)quinazoline-2,4(1H,3H)-dione]	64.7	–	CC50 at 72 h [2]: 5.6 ± 0.5 µM; EC50 ([1]; HCV 1b replicon cells): 3.4 ± 0.1 µM
O=C(Cn1c(=O)n(O)c(=O)c2ccccc21)NCc1ccc(F)cc1 [10m, N-(4-Fluorobenzyl)-2-(3-hydroxy-2,4-dioxo-3,4-dihydroquinazolin-1(2H)-yl)acetamide]	12.7	58.4	–
O=c1[nH]c2cc(-c3ccc(F)cc3F)ccc2c(=O)n1O [21n, 7-(2,4-Difluorophenyl)-3-hydroxyquinazoline-2,4(1H,3H)-dione]	69.7	–	CC50 at 72 h [2]: 11.2 ± 1.4 µM; EC50 ([1]; HCV 1b replicon cells): 3.9 ± 0.3 µM
O=C(Cn1c(=O)n(O)c(=O)c2ccccc21)NCC1CC1 [10g, N-(Cyclopropylmethyl)-2-(3-hydroxy-2,4-dioxo-3,4-dihydroquinazolin-1(2H)-yl)acetamide]	10.6	15	HCV inhibition at the tested concentrations [1]: less than 30%
CCCn1c(=O)n(O)c(=O)c2ccc(-c3ccccc3)cc21 [23g, 3-Hydroxy-7-phenyl-1-propylquinazoline-2,4(1H,3H)-dione]	-2.2	67.4	–
O=c1[nH]c2cc(-c3cc(F)cc(F)c3)ccc2c(=O)n1O [21m, 7-(3,5-Difluorophenyl)-3-hydroxyquinazoline-2,4(1H,3H)-dione]	48.2	–	–
COc1ccc(-c2ccc3c(=O)n(O)c(=O)n(C)c3c2)cc1 [23d, 3-Hydroxy-7-(4-methoxyphenyl)-1-methylquinazoline-2,4(1H,3H)-dione]	73.3	–	CC50 at 72 h [2]: 9.3 ± 0.4 µM; EC50 ([1]; HCV 1b replicon cells): 3.3 ± 0.2 µM
O=C(Cn1c(=O)n(O)c(=O)c2ccccc21)NCCc1ccccc1 [10f, 2-(3-Hydroxy-2,4-dioxo-3,4-dihydroquinazolin-1(2H)-yl)-N-phenethylacetamide]	13.3	≤ 50	–
Cn1c(=O)n(O)c(=O)c2ccc(Cc3cc(F)cc(F)c3)cc21 [18c, 7-(3,5-Difluorobenzyl)-3-hydroxy-1-methylquinazoline-2,4(1H,3H)-dione]	39.5	–	–
O=C(Cn1c(=O)n(O)c(=O)c2ccc(-c3ccco3)cc21)Nc1ccccc1Cl [23j, N-(2-Chlorophenyl)-2-(7-(furan-2-yl)-3-hydroxy-2,4-dioxo-3,4-dihydroquinazolin-1(2H)-yl)acetamide]	47.8	80	CC50 at 72 h [2]: 12.2 ± 3.3 µM; EC50 ([1]; HCV 1b replicon cells): 5.2 ± 1.9 µM
CCCCNC(=O)Cn1c(=O)n(O)c(=O)c2ccccc21 [10i, N-Butyl-2-(3-hydroxy-2,4-dioxo-3,4-dihydroquinazolin-1(2H)-yl)acetamide]	26.5	22.9	HCV inhibition at the tested concentrations [1]: less than 30%
O=c1c2ccc(-c3ccccc3)cc2n(Cc2ccccc2)c(=O)n1O [23i, 1-Benzyl-3-hydroxy-7-phenylquinazoline-2,4(1H,3H)-dione]	-6.5	4.8	–
CCn1c(=O)n(O)c(=O)c2ccc(-c3ccccc3)cc21 [23e, 1-Ethyl-3-hydroxy-7-phenylquinazoline-2,4(1H,3H)-dione]	24.6	77.5	CC50 at 72 h [2]: 39.5 ± 2.3 µM; EC50 ([1]; HCV 1b replicon cells): 26.8 ± 2.5 µM
O=C(Cn1c(=O)n(O)c(=O)c2ccccc21)NCc1cccc(F)c1 [10l, N-(3-Fluorobenzyl)-2-(3-hydroxy-2,4-dioxo-3,4-dihydroquinazolin-1(2H)-yl)acetamide]	22.4	45.5	–
CCCn1c(=O)n(O)c(=O)c2cc(-c3ccccc3)ccc21 [23f, 3-Hydroxy-6-phenyl-1-propylquinazoline-2,4(1H,3H)-dione]	26.7	28	–
O=C(Cn1c(=O)n(O)c(=O)c2ccccc21)NCc1ccccc1 [10h, N-Benzyl-2-(3-hydroxy-2,4-dioxo-3,4-dihydroquinazolin-1(2H)-yl)acetamide]	1.3	≤ 50	–
O=c1[nH]c2c(-c3ccc(F)cc3)cccc2c(=O)n1O [21v, 8-(4-Fluorophenyl)-3-hydroxyquinazoline-2,4(1H,3H)-dione]	23.5	44.5	–
O=c1[nH]c2cc(-c3cc(F)c(F)c(F)c3)ccc2c(=O)n1O [21q, 3-Hydroxy-7-(3,4,5-trifluorophenyl)quinazoline-2,4(1H,3H)-dione]	26.8	5.4	–
O=c1c2cc(-c3ccccc3)ccc2n(Cc2ccccc2)c(=O)n1O [23h, 1-Benzyl-3-hydroxy-6-phenylquinazoline-2,4(1H,3H)-dione]	7.8	2	–
COc1ccc(NC(=O)Cn2c(=O)n(O)c(=O)c3ccccc32)cc1 [10o, 2-(3-Hydroxy-2,4-dioxo-3,4-dihydroquinazolin-1(2H)-yl)-N-(4-methoxyphenyl)acetamide]	16.9	67.5	–
O=C(Cn1c(=O)n(O)c(=O)c2ccccc21)c1ccccc1 [10e, 3-Hydroxy-1-(2-oxo-2-phenylethyl)quinazoline-2,4(1H,3H)-dione]	46.1	68	CC50 at 72 h [2]: 13.1 ± 1.7 µM; EC50 ([1]; HCV 1b replicon cells): 11.3 ± 3 µM
COc1ccc(-c2ccc3c(=O)n(O)c(=O)[nH]c3c2)cc1F [21o, 7-(3-Fluoro-4-methoxyphenyl)-3-hydroxyquinazoline-2,4(1H,3H)-dione]	71.3	–	CC50 at 72 h [2]: 4.3 ± 0.4 µM; EC50 ([1]; HCV 1b replicon cells): 3.9 ± 2.2 µM
COc1ccc(-c2cccc3c(=O)n(O)c(=O)[nH]c23)cc1 [21w, 3-Hydroxy-8-(4-methoxyphenyl)quinazoline-2,4(1H,3H)-dione]	11.5	36.4	–
O=C(Cn1c(=O)n(O)c(=O)c2ccccc21)NCc1c(Cl)cccc1Cl [10k, N-(2,6-Dichlorobenzyl)-2-(3-hydroxy-2,4-dioxo-3,4-dihydroquinazolin-1(2H)-yl)acetamide]	43.7	54.7	–
Cn1c(=O)n(O)c(=O)c2ccc(Cc3ccccc3)cc21 [18b, 7-Benzyl-3-hydroxy-1-methylquinazoline-2,4(1H,3H)-dione]	23	–	–
O=c1c2ccccc2n(CCCc2ccccc2)c(=O)n1O [10b, 3-Hydroxy-1-(3-phenylpropyl)quinazoline-2,4(1H,3H)-dione]	28.6	40.9	–
O=C(Cn1c(=O)n(O)c(=O)c2ccccc21)Nc1ccccc1 [10j, 2-(3-Hydroxy-2,4-dioxo-3,4-dihydroquinazolin-1(2H)-yl)-N-phenylacetamide]	30.1	62.7	–
O=c1[nH]c2ccccc2c(=O)n1O [10a, 3-Hydroxyquinazoline-2,4(1H,3H)-dione]	–	–	inhibition at 10 µM [1]: -3%; inhibition at 25 µM [1]: 36%
O=c1[nH]c2cc(Cc3ccccc3)ccc2c(=O)n1O [18a, 7-Benzyl-3-hydroxyquinazoline-2,4(1H,3H)-dione]	28.6	59.8	–
